Data on 7 compounds can be found in ChEMBL document CHEMBL1137055, “Pyrazolo[1,5-a]pyrimidines as estrogen receptor ligands: defining the orientation of a novel heterocyclic core” (Bioorg Med Chem Lett, 2004).

In test [1] the target is T1, Estrogen receptor (Homo sapiens) (UniProt P03372).
T1 sequence (whole entry): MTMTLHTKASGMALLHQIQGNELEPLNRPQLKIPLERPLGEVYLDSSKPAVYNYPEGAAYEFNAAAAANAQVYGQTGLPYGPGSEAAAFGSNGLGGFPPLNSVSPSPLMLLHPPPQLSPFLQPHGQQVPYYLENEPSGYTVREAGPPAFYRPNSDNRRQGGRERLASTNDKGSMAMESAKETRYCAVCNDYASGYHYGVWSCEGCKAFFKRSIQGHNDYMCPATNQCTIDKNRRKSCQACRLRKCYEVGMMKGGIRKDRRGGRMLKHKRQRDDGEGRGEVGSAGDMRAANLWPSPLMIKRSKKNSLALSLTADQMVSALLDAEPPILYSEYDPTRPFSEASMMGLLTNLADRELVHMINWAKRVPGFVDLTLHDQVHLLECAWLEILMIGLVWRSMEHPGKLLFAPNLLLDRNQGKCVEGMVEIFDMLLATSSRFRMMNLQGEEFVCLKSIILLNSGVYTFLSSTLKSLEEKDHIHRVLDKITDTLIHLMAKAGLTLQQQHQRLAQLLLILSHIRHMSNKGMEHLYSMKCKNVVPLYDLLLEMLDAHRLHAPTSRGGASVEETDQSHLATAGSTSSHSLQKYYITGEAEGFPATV
Briefly: Binding affinity for Estrogen receptor alpha compared to estradiol (100%).

The target of test [2] is Estrogen receptor beta (Homo sapiens) (UniProt Q92731). Briefly: Binding affinity for Estrogen receptor beta compared to estradiol (100%).
Chain of Estrogen receptor beta (Homo sapiens) (Q92731 whole entry): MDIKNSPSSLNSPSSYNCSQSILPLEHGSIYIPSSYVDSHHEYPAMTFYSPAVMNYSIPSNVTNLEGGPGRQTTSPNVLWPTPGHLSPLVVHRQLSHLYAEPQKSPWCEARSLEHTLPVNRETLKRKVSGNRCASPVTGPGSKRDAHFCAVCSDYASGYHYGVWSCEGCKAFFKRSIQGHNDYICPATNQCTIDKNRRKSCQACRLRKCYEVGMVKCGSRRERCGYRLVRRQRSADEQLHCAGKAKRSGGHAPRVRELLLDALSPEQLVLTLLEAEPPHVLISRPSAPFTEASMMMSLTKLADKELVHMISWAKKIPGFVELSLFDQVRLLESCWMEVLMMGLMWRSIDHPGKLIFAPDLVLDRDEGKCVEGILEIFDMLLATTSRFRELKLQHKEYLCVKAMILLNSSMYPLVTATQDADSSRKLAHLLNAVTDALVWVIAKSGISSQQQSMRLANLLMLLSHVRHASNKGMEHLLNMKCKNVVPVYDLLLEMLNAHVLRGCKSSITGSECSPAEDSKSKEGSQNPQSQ

In the case of `Oc1ccc(-c2nn3cccnc3c2-c2ccc(O)cc2)cc1`, the Binding affinity in test [1] turned out to be 0.004%; in test [2], 0.1%.

Regarding `Oc1ccc(-c2c(-c3ccccc3)nn3cccnc23)cc1`, the Binding affinity was 0.007% in test [1] and 0.02% in test [2].

On to `Oc1ccc(-c2nn3cccnc3c2-c2ccccc2)cc1`, for which the Binding affinity was 0.01% in test [1] and 0.05% in test [2].

Take `Oc1ccc(-c2nn3cc(O)cnc3c2-c2ccc(O)cc2)cc1`: the Binding affinity in test [1] amounted to 0.004%; in test [2], 0.03%.

For `Oc1cnc2c(-c3ccccc3)c(-c3ccccc3)nn2c1`, in test [2], the Binding affinity worked out at 0.005%.

Take `Oc1ccc(-c2nn3cc(O)cnc3c2-c2ccccc2)cc1`: the Binding affinity in test [1] was found to be 0.003%; in test [2], 0.01%.

`Oc1ccc(-c2c(-c3ccccc3)nn3cc(O)cnc23)cc1` returned a Binding affinity in test [2] of 0.006%.
